In brackets after ≈: the same amount, converted by molar mass. Read-outs that look alike come from different tables or passages of the source.
Legend:
fibroblasts = details: cited from earlier work
S. aureus biofilm [1] = test: Biofilm disruption: elimination of preformed biofilm (CFU/mL count); format: cell-based, Staphylococcus aureus; details: 0.5 mg/mL, 24 h, vs untreated biofilm
Protocol: S. aureus was grown overnight in TSB until stationary growth phase was reached. At this point, bacteria were adjusted to 10^7 CFU/mL and added to a MW96 microplate and incubated at 37 °C for 16 h without shaking. After incubation, culture medium was discarded and biofilms were washed twice with PBS. In order to determine biofilm formation, Calcofluor White Stain (50 µL) was added to each well and incubated 1 min in the dark at room temperature. After incubation, the stain was removed and biofilms were washed twice with PBS. Samples were air-dried in the dark to be further visualized in an inverted fluorescence microscope (Olympus IX81). The effects of EO molecules (0.25–1 mg/mL) to prevent the formation of biofilm and to disrupt an already formed S. aureus biofilm were studied. EO compounds were added to preformed biofilms and samples were incubated for 24 h at 37 °C without shaking. After incubation, biofilms were disrupted by sonication (15 min, 200 W; Ultrasons, JP Selecta, Barcelona, Spain). Samples were then diluted and seeded onto agar plates to count the viable colonies grown after 24 h of incubation at 37 °C.

S. aureus ATCC 43300 = details: cited from earlier work
intestinal cells = details: cited from earlier work
S. aureus biofilm [2] = test: Inhibition of biofilm formation (CFU/mL count); format: cell-based, Staphylococcus aureus; details: added to bacteria suspension, 16 h; concentration not printed in the sentence (Figure 5B)
Protocol: To study the effects of the compounds present in the EOs on biofilm formation, those were added to bacterial suspensions (10^7 CFU/mL) in a MW96 microplate and incubated for 16 h at 37 °C without shaking. After incubation, planktonic cells were removed by washing them twice with PBS. Biofilm samples were then sonicated as described above and serially diluted to be further plated on agar. Viable bacteria (CFU/mL) were counted after 24 h of incubation at 37 °C.

E. coli and S. aureus = test: Bactericidal mechanism by SEM, flow cytometry and confocal microscopy; format: cell-based, Escherichia coli, Staphylococcus aureus; details: treated at MIC and MBC for 24 h
Protocol: Bacteria morphology before and after treatment with EO molecules was analyzed by SEM as we previously reported. Briefly, logarithmic growth phase E. coli and S. aureus bacteria cultures (~10^5 CFU/mL) were treated with the selected EO compounds at MIC and MBC values and incubated overnight at 37 °C. Following incubation, samples were spin-dried at 600 g and washed twice in PBS (0.1 M). Bacteria were fixed in 2.5% glutaraldehyde for 90 min and subsequently filtered and dehydrated in ethanol solutions series (30, 50, 70, 80, 90, and 100%; twice for 15 min). Finally, samples were air-dried at room temperature and covered with Pt. SEM micrographs were acquired in a SEM Inspect F50 equipment (FEI Co., LMA-INA, Zaragoza, Spain).
In order to study the bactericidal mechanism of the different molecules present in EOs, E. coli and S. aureus bacteria samples (10^7 CFU/mL) were centrifuged at 4400× g for 10 min and resuspended in the different compound solutions at MIC and MBC concentrations following the protocols previously described. Control groups (not treated and chlorhexidine treated bacteria) were also analyzed. All samples were incubated overnight at 37 °C. After propidium iodide (25 µg/mL; Sigma-Aldrich, Munich, Germany) addition, samples were analyzed by flow cytometry in Gallios equipment (Beckman Coulter Company, Cell Separation and Cytometry Unit, CIBA, IIS Aragon, Zaragoza, Spain).
The Live/Dead®BacLight™ bacterial viability kit (Molecular Probes, Fisher Scientific, Hampton, USA) was used to detect bacteria membrane damage. The methodology is based on the double-staining by SYTO9 and propidium iodide as indicated by the manufacturer. […] Samples were then mounted on slides and visualized by confocal microscopy (Leica TCS SP2 Laser Scanning Confocal Microscope, Microscopy Unit, CIBA, IIS Aragon, Zaragoza, Spain). Control samples were also tested as described above.

S. aureus ATCC 6538 = details: cited from earlier work
[3] = test system: human epidermal keratinocytes (HaCaT); test: Cytotoxicity, Blue Cell Viability assay; details: 24 h; for subcytotoxic dose: keratinocytes
Protocol: (§1) Human dermal fibroblasts, human epidermal keratinocytes (HaCaT), and THP1 human monocytes were used to evaluate the cytotoxic effects of EO-based compounds.
(§2) Fibroblasts and HaCaT were routinely grown in high-glucose DMEM supplemented with 10% FBS and antibiotic-antimycotic. Monocytes were cultured in RPMI 1640 supplemented with 10% FBS, 1% HEPES, 1% nonessential amino acids, 0.1% 2-mercaptoethanol 50 mM, 1% sodium pyruvate 100 mM, and antibiotic-antimycotic. Macrophages were obtained by the in vitro differentiation of monocytes by adding 1 µM PMA to the cell culture. All cell types were grown in a humidified atmosphere at 37 °C and 5% CO2.
(§3) The cytotoxicity was determined by measuring cell metabolism through the Blue Cell Viability assay. Cells were seeded on MW96 microplates and incubated with the tested molecules (0.004–0.125 mg/mL) for 24 h. Control samples (not treated and chlorhexidine treated) were also analyzed. Then, the reagent was added (10%) and cells were incubated for 4 h at 37 °C. The reduction of the dye by metabolically active cells was monitored in a microplate reader (Multimode Synergy HT Microplate Reader; Biotek, Winooski, WI, USA) at 535/590 nm ex/em. Cell viability was determined by interpolation of the emission data obtained from the treated samples and the control samples (not treated cells, 100% viability).

[4] = test system: macrophages (THP1 human monocytes differentiated with PMA); test: Cytotoxicity, Blue Cell Viability assay; details: 24 h
Protocol: as §1, §2, §3

human dermal fibroblasts = test: Cytotoxicity, Blue Cell Viability assay; details: 24 h
Protocol: as §1, §2, §3

S. aureus = details: cited from earlier work
S. aureus ATCC 25923 = test: MIC and MBC determination, broth microdilution method; format: cell-based; details: Staphylococcus aureus
Protocol: (§4) A Gram-negative model E. coli S17 strain was used, which was kindly donated by Dr. Jose Antonio Ainsa, exerting resistance to streptomycin as it is also widely used for transformation purposes. S. aureus ATCC 25923, well-known as not a resistant strain and used in susceptibility tests, was evaluated as a Gram-positive model. Both strains were initially grown overnight in TSB at 37 °C under shaking (150 rpm) obtaining, in the stationary growth phase, 10^8–10^9 CFU/mL. TSA was used for seeding bacteria in an incubator at 37 °C (Memmert, Schwabach, Germany) in order to calculate the bacteria growth (CFU/mL) after treatment with the EO-contained molecules.
(§5) Inhibitory and bactericidal concentrations of active EO molecules were tested in two bacteria cultures, E. coli and S. aureus, following the broth microdilution method. Liquid growth medium containing an inoculum of 10^5 CFU/mL and serial concentrations of the EO compounds (0.1–4 mg/mL) were used. EO compounds were solubilized in culture medium by adding Tween® 80 (1.5–2% v/v) prior to their serial dilution. Once bacteria suspension was in stationary growth (10^8–10^9 CFU/mL), it was further diluted to ~10^5 CFU/mL and added to different concentrations ([…]) of the antimicrobial agents. Then, samples were incubated for 24 h at 37 °C under shaking (150 rpm). After incubation, bacterial suspensions were diluted in PBS and spot-plated on TSA plates to count colonies after incubation at 37 °C for 24 h. Positive control (untreated bacteria) and negative control (chlorhexidine treated bacteria) samples were also tested.

E. coli S17 strain = test: as above; format: cell-based; details: Escherichia coli, S17STRAIN, 24 h, 37 °C, average of 12 replicas
Protocol: as §4, §5

tumor cell lines = details: cited from earlier work
[5] = Cytotoxicity, Blue Cell Viability assay; details: human, human dermal fibroblasts
Protocol: as §1, §2, §3

[6] = test system: human dermal fibroblasts, keratinocytes, and macrophages; details: 24 h
Protocol: as §1, §2, §3

[7] = ATCC25923, S. aureus, 24 h, 37 °C, average of 12 replicas, read-out: MBC
[8] = ATCC25923, S. aureus, 24 h, 37 °C, average of 12 replicas, read-out: MIC

Row | SMILES | bactericidal mechanism (E. coli and S. aureus) | subcytotoxic dose [3] | MBC (E. coli S17 strain) [µg/mL] | MIC (E. coli S17 strain) [µg/mL] | MBC (S. aureus ATCC 25923; [7]) [µg/mL] | MIC (S. aureus ATCC 25923; [8]) [µg/mL] | further results
1 | Cc1ccc(C(C)C)cc1O [Carvacrol] | membrane disruption | 0.030 mg/mL | 400 (≈ 2.66 mM) | 200 (≈ 1.33 mM) | – | – | concentration giving 50% viability (fibroblasts; fibroblasts): ~ 5 µg/mL; reduction in bacteria growth (CFU/mL) of preformed biofilm (S. aureus biofilm [1]): 3 logs; MIC (S. aureus ATCC 43300): 310 µg/mL (≈ 2.06 mM); subcytotoxic concentration (intestinal cells; intestinal cells): ~ 500 µM; decrease in posterior bacterial growth, compound added before biofilm formation (S. aureus biofilm [2]): ~6 logs; MIC (S. aureus ATCC 6538; converted from 0.015% v/v): approximately 0.147 mg/mL; MIC (S. aureus ATCC 6538; converted from 2.5 µL/mL): approximately 2.45 mg/mL; MIC (S. aureus ATCC 6538; ref 18): 0.015 % v/v; MIC (S. aureus ATCC 6538; ref 21): 2.5 µL/mL; MIC (S. aureus ATCC 6538; ref 22): 0.4 mg/mL (≈ 2.66 mM); subcytotoxic concentration ([4]; macrophages): 0.090 mg/mL; concentration toxic to fibroblasts (affects viability) (human dermal fibroblasts; viability below 70% (ISO 10993-5)): ≥ 90 µg/mL; MIC (S. aureus; lower end of literature range): approximately 0.15 mg/mL; MIC (S. aureus; upper end of literature range): 15000 µg/mL (≈ 99.9 mM); MBC (S. aureus ATCC 25923; ATCC25923, 24 h): 300 µg/mL (≈ 2 mM); MIC (S. aureus ATCC 25923; ATCC25923, 24 h): 200 µg/mL (≈ 1.33 mM)
2 | O=C/C=C/c1ccccc1 [Cinnamaldehyde] | membrane disruption | – | 300 (≈ 2.27 mM) | 200 (≈ 1.51 mM) | 500 (≈ 3.78 mM) | 400 (≈ 3.03 mM) | reduction in bacteria growth (CFU/mL) of preformed biofilm (S. aureus biofilm [1]): around 2 logs; decrease in posterior bacterial growth, compound added before biofilm formation (S. aureus biofilm [2]): 4 logs; subcytotoxic concentration (tumor cell lines): ~ 10 µg/mL; dose that reduces viability below 70% ([3]; human): 0.030 mg/mL; dose that reduces viability below 70% ([4]; human): 0.030 mg/mL; concentration toxic to fibroblasts (affects viability) (human dermal fibroblasts; human): 15 µg/mL
3 | C=CCc1ccc(O)c(OC)c1 [Eugenol] | – | – | 500 (≈ 3.04 mM) | 400 (≈ 2.44 mM) | 1500 (≈ 9.13 mM) | 1300 (≈ 7.92 mM) | –
4 | O=C(/C=C/c1ccc(O)c(O)c1)O[C@H](Cc1ccc(O)c(O)c1)C(=O)O [Rosmarinic acid] | – | – | > 4000 | > 4000 | 4000 (≈ 11.1 mM) | 2500 (≈ 6.94 mM) | –
5 | CC(C)=CCC/C(C)=C/CC/C(C)=C/CC/C=C(\C)CC/C=C(\C)CCC=C(C)C [Squalene] | – | – | > 4000 | > 4000 | > 4000 | > 4000 | –
6 | Cc1ccc(C(C)C)c(O)c1 [Thymol] | membrane disruption | 0.060 mg/mL | 300 (≈ 2 mM) | 200 (≈ 1.33 mM) | 300 (≈ 2 mM) | 200 (≈ 1.33 mM) | concentration giving 50% viability (fibroblasts): ~ 5 µg/mL; subcytotoxic concentration (intestinal cells): ~ 500 µM; subcytotoxic concentration ([4]; human): 0.060 mg/mL; concentration toxic to fibroblasts (affects viability) (human dermal fibroblasts; human): ≥ 90 µg/mL
7 | [H]/N=C(\N/C(=N/[H])NCCCCCCNC(=N)NC(=N)Nc1ccc(Cl)cc1)Nc1ccc(Cl)cc1 [chlorhexidine, reference compound] | – | lower than 0.004 mg/mL | – | – | – | – | subcytotoxic concentration ([4]; human): lower than 0.004 mg/mL; viability at 24 h, 0.004 mg/mL [5]: > 70%; subcytotoxic concentration [6]: 0.004 mg/mL
8 | C=C1CC/C=C(\C)CC[C@@H]2[C@@H]1CC2(C)C [β-caryophyllene] | – | – | > 4000 | > 4000 | > 4000 | > 4000 | –

Reference: publication PMC6100501, “Evaluation of the Antimicrobial Activity and Cytotoxicity of Different Components of Natural Origin Present in Essential Oils” (Molecules : A Journal of Synthetic Chemistry and Natural …, 2018)
